# Source: publication PMC11648822, “Lactam Truncation Yields a Dihydroquinazolinone Scaffold with Potent Antimalarial Activity that Targets PfATP4” (Chemmedchem, 2024)
# Several values for one entry are separate records, joined by “and”; a condition that tells them apart may be missing. Identical values can stand only once.
# Tested on: P. berghei ANKA
# Test: P. berghei 4-day mouse model
# Format: in vivo
# Conditions: 20 mg/kg p.o. q.d. at 2, 24, 48, 72 h
# Description: In this model, mice are infected with P. berghei ANKA asexual blood stage parasites. Compounds are then administered by oral gavage at 20 mg/kg 2, 24, 48, and 72 hours after the parasite infection.
# Each day, a fresh aliquot of the compound stock was diluted 1/10 in water for administration to mice. 8 week old female mice (Ozgene) on day 0 were infected with 2×10^7 P. berghei ANKA‐infected erythrocytes. […] 2 mice were also dosed with artesunate using the same regime at 30 mg/kg. The parasitemia of mice was assessed by visualizing Giemsa‐stained thin blood smears by microscopy and a minimum of 1000 RBCs were counted. To calculate the percent antimalarial activity the following formula was used: 100 ‐ (mean parasitemia treated day 4 post‐infection/mean parasitemia vehicle control day 4 post‐infection)×100. Mice were culled the day following the last oral gavage.
# Briefly, ‘donor’ female Swiss mice were infected intraperitoneally (IP) with blood stage P. berghei parasites constitutively expressing GFP (P. berghei ANKA GFPcon 259cl2).[36] Three days later, groups of 3 ‘acceptor’ Swiss mice were infected intravenously with 1 x 10^7 parasitised red blood cells from the ‘donor mice’. […] Control mice were left untreated. Peripheral blood samples were taken 24 h after administration of the last dose, and parasitemia was measured by flow cytometry (proportion of GFP‐positive cells in 100,000 recorded events using Attune Nxt, ThermoFisher) and microscopic analysis of Giemsa‐stained blood smears. Parasitemia values were averages of 3 mice per group.
smiles,measurement,setting,value
"CN1C(=O)c2ccc(-n3cccn3)cc2NC1(C)C(=O)Nc1cncc(Cl)c1 (centres unmarked) [Compound 33, N‐(5‐Chloropyridin‐3‐yl)‐2,3‐dimethyl‐4‐oxo‐7‐(1H‐pyrazol‐1‐yl)‐1,2,3,4‐tetrahydroquinazoline‐2‐carboxamide]",% parasitemia,day 4,12.8%
same,% reduction in parasitemia,"day 4, versus control",46% and 46.7%
